Patent US9284310B2, “Inhibitors of cytomegalovirus” (Boehringer Ingelheim International GmbH, priority 2012, dated 2016)

Experiments:
HCMV AD169 virus [1] = test: HCMV AD169 CPE Assay (Example A); format: cell-based; conditions: Human betaherpesvirus 5, AD169, MRC5, 216 h, MRC-5 cells, 9 days, MTS readout
Experimental: This assay format is a CPE (Cytopathic effect)-based assay that determines the ability of compounds to protect cells against infection with a dye reduction assay (MTS of CellTiter 96® AQueous Non-Radioactive Cell Proliferation Assay from Promega). The conversion of MTS into aqueous, soluble formazan is performed by dehydrogenase enzymes found in metabolically active cells. The quantity of formazan product determined by absorbance at 490 nm is directly proportional to the number of living cells in culture.
(§1) Serial dilutions of the DMSO stock compound solution are performed using DMSO in columns 2-11 and 14-23. DMSO alone is present in columns 1, 12, 13 and 24. Four μL of the DMSO serial dilutions is obtained and diluted using […] of D-MEM 5% FBS culture medium to obtain 4% DMSO (7×).
To perform the assay, 10 µL of the freshly prepared 4% DMSO serial dilution plate is added to the assay plate containing 40 μL of MRC-5 cells plated the day before (10000 cells per well). Twenty μL of diluted virus is added to columns 2-12 and 14-24 and only D-MEM 5% FBS medium to uninfected control (columns 1 and 13) for a final DMSO concentration of 0.6%.
The virus dilution is based on the amount of virus required to obtain a Signal-to-Background of 3-4 (generally between 0.1 and 1 μL of virus stock per well or MOI=0.05). The assay plates are incubated at 37° C. with 5% CO2 for 9 days in order to obtain 100% CPE in infected control without compound (columns 12 and 24). Ten μL of freshly mixed room temperature MTS/PMS (1:20 v/v) is added and the plates are incubated at 37° C. with 5% CO2 for 4-5 h (until signal saturation at 2.3 in the 100% CPE control). The plates are sealed with TopSeal for biosafety and read on the Envision plate reader (Perkin-Elmer) or equivalent at OD 492 nm.

HCMV AD169 virus [2] = test: HCMV AD169 qPCR 96-Well Assay (Example C); format: cell-based; conditions: Human betaherpesvirus 5, AD169, MRC5, 72 h; qPCR of viral DNA, MRC-5 cells, 3 days
Experimental: The hCMV quantitative PCR (qPCR) assay evaluates the ability of a compound to inhibit, directly or indirectly, the replication of hCMV viral DNA during the first 72 h following the infection. Compounds that inhibit either entry or the hCMV polymerase are active in this assay. Compounds are tested in the qPCR assay in 96-well plates, using a 9-point dose-response with 8 compounds for each 96-well plate. The assay was adapted from the method described by Schnepf et al., Rapid determination of antiviral drug susceptibility of human cytomegalovirus by real-time PCR, Antiviral Research 81 (2009) 64-67.
Final Concentrations: • 10 mM Tris-HCl pH8.0 • 50 mM KCl • 2 mM MgCl2 • 0.45% Tween20 • 0.45% Nonidet P40
Serial dilutions of the DMSO stock compound solution are performed using DMSO in columns 2-10. DMSO alone is present in columns 1 and 11. Column 12 remains empty. Diluted compounds are further diluted with DMEM 5% FBS cell culture medium.
To perform the assay, 25 μL of inhibitor dilutions freshly prepared is added to the assay plate containing 50 μL of MRC-5 cells plated the day before (30000 cells per well). In a 9 point dose-response, column 1 contains mock infected cells and serves at negative control, with the appropriate concentration of DMSO, columns 2 to 10 contain compound dilutions and column 11 contains infected cells, with the appropriate concentration of DMSO and serves as the positive control. Column 12 serves for the standard curve in the qPCR process. Twenty-five μL of virus diluted in DMEM 5% FBS medium (to infect at MOI=0.05) is added to columns 2-11 and only D-MEM 5% FBS medium to uninfected control (column 1) for a final DMSO concentration of 0.6%. Incubate plates at 37° C. in 5% CO2 incubator for 3 days. Whole cell lysates are then obtained by adding 100 μL of Cell lysis buffer to each well including freshly added Proteinase K at a ratio of 1:5 (i.e. 200 μL Proteinase K:1000 μL Cell Lysis buffer) and incubating the assay plate at 56° C. for 1 h. Plates are centrifuged at 1300 rpm for 2 minutes to remove any condensation before proceeding with the qPCR.
The cell lysate is carefully pipetted up and down to mix well and diluted 1:40 in H2O to give a final dilution of 1:80 relative to the 100 μL of lysis buffer that Is added to the cells. 5 μL of diluted lysate is used for the qPCR reaction. An incubation of 5 minutes at 95° C. in a PCR machine is required to inactivate the Proteinase K. The cell lysates can be stored at −20° C. or used to perform qPCR immediately.
A 81 bp fragment of US17 gene from AD169 is amplified by PCR using primers qHCMV7 and qHCMV8. The PCR product is cloned into pCR4 TOPO vector (Invitrogen) and a clone harboring the insert is selected. A mitochondrial DNA is also added to normalize the HCMV copy number. Serial dilutions of the US17 plasmid and mitochondrial DNA are performed in heat-inactivated lysis buffer at the same dilution as the cell lysates (1:80). Usually, a standard curve ranging from 10E6 to 10E2 copies (per well) is suitable.
A typical qPCR reaction consists of the following:
A qPCR cycle consists of an initial denaturation of DNA and activation of the Taq enzyme at 95° C. for 10 min followed by 45 cycles of 15 seconds at 95° C. and 1 min at 60° C. Fluorescence is measured at each cycle, following the elongation step at 60° C. The reaction, data acquisition and analysis are performed using AppliedBiosystems 7500 Real time PCR system or other suitable real-time PCR system.

[3] = test system: HCMV AD169-Bac-Luc2 US2-US6 clone #26 virus; test: HCMV AD169-Bac Luciferase Assay (Example B); format: cell-based, Human Cytomegalovirus; conditions: Human betaherpesvirus 5, AD169, MRC5, 72 h, read-out: EC50 Example B
Excerpt: This assay format is a luciferase reporter-based assay that determines the ability of compounds to inhibit the infection by detecting a luciferase signal decrease following the addition of BIGlo substrate (preparation indicated below) directly in the culture media. Mono-oxygenation of luciferin is catalyzed by luciferase in the presence of Mg2+, ATP and molecular oxygen. The generation of oxyluciferin is a luminescent reaction that can be detected with the proper platereader. Human Cytomegalovirus AD169-Bac is obtained from Dr. Thomas Shenk at Princeton University (reference paper Yu et al. 2002—J. Virol. 76 (5):2316-2328, herein incorpoarated by reference) and modified by recombineering to introduce a humanized firefly luciferase gene (Luc2) at the US2-US6 position in the HCMV genome. The virus is expanded in MRC-5 cells.
as §1
To perform the assay, 7 μL of the freshly prepared 4% DMSO serial dilution plate is added to the assay plate containing […] of MRC-5 cells plated the day before (10000 cells per well). Seventeen μL of diluted virus is added to columns 2-12 and 14-24 and only D-MEM 5% FBS medium to uninfected control (columns 1 and 13) for a final DMSO concentration of 0.6%. The virus dilution is based on the amount of virus required to obtain the highest luciferase signal possible without CPE (generally between 0.05 and 1 μL of virus stock per well or MOI=0.02). The assay plates are incubated at 37° C. with 5% CO2 for 3 days. Fifteen μL of room temperature BIGlo buffer is added to room temperature assay plates also incubated at room temperature for 15 minutes. The plates are sealed with TopSeal for biosafety and the luminescence signal is read on the TopCount plate reader (Perkin-Elmer) or equivalent.

## O=C(Nc1ccc(-c2nnc(Nc3ccccc3)[nH]2)cc1)c1cscn1 [Compound 1039]
HCMV AD169 virus [1]
  EC50: 550 nM
HCMV AD169 virus [2]
  EC50: 390 nM
[3]
  EC50: 103 nM

## O=C(Nc1ccc(-c2cnc(-c3cccc(C(F)(F)F)c3)[nH]2)cn1)c1cscn1 [Compound 1052]
HCMV AD169 virus [1]
  EC50: 4200 nM
HCMV AD169 virus [2]
  EC50: 1800 nM
[3]
  EC50: 450 nM
